Assay results: ChEMBL document CHEMBL4152229, “Synthesis and biological evaluation of 2,6-disubstituted-9H-purine, 2,4-disubstitued-thieno[3,2-d]pyrimidine and -7H-pyrrolo[2,3-d]pyrimidine analogues as novel CHK1 inhibitors” (Eur J Med Chem, 2018)

Assays:
[1] = biological target: Glycogen synthase kinase-3 beta (Homo sapiens) (UniProt P49841); assay: Inhibition of DNA-tagged GSK3beta (unknown origin) expressed in HEK293 cells at 10 uM after 1 hr by real-time fluorescent quantitative PCR analysis; type: cell-based
Sequence of Glycogen synthase kinase-3 beta (Homo sapiens) (P49841 whole entry, looked up): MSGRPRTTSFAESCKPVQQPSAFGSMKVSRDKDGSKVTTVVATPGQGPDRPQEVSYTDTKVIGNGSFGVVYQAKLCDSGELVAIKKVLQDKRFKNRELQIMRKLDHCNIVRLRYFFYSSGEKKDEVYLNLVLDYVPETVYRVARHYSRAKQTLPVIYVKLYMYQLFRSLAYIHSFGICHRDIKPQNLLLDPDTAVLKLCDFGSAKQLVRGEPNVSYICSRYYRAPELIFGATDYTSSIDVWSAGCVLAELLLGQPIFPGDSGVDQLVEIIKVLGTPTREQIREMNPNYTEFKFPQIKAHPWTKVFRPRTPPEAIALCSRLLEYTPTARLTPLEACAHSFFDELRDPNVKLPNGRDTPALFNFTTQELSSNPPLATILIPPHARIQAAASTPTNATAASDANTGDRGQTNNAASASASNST

[2] = biological target: Serine/threonine-protein kinase Chk2 (Homo sapiens) (UniProt O96017); assay: Inhibition of DNA-tagged CHK2 (unknown origin) expressed in HEK293 cells at 10 uM after 1 hr by real-time fluorescent quantitative PCR analysis; type: cell-based
Sequence of Serine/threonine-protein kinase Chk2 (Homo sapiens) (O96017 whole entry): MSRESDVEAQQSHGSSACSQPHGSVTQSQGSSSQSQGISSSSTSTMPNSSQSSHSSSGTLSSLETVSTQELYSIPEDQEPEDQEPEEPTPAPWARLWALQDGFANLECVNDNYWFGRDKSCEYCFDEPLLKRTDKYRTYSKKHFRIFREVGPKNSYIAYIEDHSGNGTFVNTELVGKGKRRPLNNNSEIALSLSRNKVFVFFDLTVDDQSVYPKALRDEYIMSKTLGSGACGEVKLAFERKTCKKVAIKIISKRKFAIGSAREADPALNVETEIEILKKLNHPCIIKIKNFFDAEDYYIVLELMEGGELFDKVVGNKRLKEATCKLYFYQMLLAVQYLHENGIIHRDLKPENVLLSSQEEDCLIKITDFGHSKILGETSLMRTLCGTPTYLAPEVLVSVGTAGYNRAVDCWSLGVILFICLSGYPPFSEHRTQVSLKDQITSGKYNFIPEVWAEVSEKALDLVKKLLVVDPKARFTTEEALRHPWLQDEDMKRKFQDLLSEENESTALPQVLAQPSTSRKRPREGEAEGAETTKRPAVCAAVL

[3] = biological target: T1, Calcium/calmodulin-dependent protein kinase type IV (Homo sapiens) (UniProt Q16566); assay: Inhibition of DNA-tagged CAMK4 (unknown origin) expressed in HEK293 cells at 10 uM after 1 hr by real-time fluorescent quantitative PCR analysis; type: cell-based
T1 sequence (whole entry): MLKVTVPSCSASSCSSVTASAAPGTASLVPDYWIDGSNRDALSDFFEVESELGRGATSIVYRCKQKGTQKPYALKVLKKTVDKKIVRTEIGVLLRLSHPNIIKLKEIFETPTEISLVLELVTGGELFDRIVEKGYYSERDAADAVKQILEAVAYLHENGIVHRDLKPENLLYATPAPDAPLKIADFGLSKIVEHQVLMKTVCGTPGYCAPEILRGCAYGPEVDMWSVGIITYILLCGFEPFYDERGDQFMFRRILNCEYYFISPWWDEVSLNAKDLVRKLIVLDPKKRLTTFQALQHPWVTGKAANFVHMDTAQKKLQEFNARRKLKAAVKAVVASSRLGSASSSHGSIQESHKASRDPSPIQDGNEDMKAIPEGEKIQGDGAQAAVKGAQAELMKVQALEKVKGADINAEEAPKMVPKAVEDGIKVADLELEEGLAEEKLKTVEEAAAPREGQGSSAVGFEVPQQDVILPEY

[4] = biological target: T2, Ephrin type-B receptor 4 (Homo sapiens) (UniProt P54760); assay: Inhibition of DNA-tagged EPHB4 (unknown origin) expressed in HEK293 cells at 10 uM after 1 hr by real-time fluorescent quantitative PCR analysis; type: cell-based
T2 sequence (whole entry): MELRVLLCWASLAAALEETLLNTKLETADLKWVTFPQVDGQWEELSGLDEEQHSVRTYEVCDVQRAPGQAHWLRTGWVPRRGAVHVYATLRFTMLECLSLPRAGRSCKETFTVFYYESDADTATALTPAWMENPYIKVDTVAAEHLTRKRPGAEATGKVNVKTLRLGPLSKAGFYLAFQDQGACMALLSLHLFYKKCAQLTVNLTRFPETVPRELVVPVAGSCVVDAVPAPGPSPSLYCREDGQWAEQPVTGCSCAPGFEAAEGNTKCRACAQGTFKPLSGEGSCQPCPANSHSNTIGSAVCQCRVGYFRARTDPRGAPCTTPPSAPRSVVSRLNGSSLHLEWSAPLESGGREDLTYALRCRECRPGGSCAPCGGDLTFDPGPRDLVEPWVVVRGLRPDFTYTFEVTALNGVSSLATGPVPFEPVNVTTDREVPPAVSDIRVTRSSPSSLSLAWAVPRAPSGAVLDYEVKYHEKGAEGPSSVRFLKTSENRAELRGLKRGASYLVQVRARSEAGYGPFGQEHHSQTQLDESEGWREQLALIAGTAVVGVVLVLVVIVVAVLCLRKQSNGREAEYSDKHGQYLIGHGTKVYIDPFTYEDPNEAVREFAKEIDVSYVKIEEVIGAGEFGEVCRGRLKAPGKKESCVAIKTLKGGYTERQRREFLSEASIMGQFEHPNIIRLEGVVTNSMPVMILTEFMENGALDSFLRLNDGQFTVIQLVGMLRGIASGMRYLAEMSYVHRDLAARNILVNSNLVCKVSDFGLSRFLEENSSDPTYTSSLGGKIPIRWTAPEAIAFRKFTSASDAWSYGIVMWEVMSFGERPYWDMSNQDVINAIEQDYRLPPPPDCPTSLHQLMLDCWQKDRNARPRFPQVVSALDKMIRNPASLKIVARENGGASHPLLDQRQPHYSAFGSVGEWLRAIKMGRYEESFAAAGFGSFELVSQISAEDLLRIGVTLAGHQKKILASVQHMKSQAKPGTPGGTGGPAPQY

[5] = biological target: Mitogen-activated protein kinase 1 (Homo sapiens) (UniProt P28482); assay: Inhibition of DNA-tagged MAPK1 (unknown origin) expressed in HEK293 cells at 10 uM after 1 hr by real-time fluorescent quantitative PCR analysis; type: cell-based
Sequence of Mitogen-activated protein kinase 1 (Homo sapiens) (P28482 whole entry): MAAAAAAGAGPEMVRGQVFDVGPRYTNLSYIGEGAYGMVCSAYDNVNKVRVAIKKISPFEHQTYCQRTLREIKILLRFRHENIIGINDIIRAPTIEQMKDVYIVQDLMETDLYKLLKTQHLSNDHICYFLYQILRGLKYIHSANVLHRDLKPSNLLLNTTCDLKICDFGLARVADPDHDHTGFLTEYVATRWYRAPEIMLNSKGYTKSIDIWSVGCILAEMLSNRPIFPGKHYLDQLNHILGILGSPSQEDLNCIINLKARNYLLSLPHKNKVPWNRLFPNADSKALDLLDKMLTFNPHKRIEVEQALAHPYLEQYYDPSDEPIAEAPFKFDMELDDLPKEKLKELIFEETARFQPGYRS

HT-29 = assay: Cell cycle arrest in human HT-29 cells assessed as accumulation at G2 phase at 10 uM after 48 hrs by propidium iodide/RNase staining-based flow cytometric analysis (reference value: 7.0%); type: functional
[6] = biological target: Tyrosine-protein kinase BTK (Homo sapiens) (UniProt Q06187); assay: Inhibition of DNA-tagged BTK (unknown origin) expressed in HEK293 cells at 10 uM after 1 hr by real-time fluorescent quantitative PCR analysis; type: cell-based
Sequence of Tyrosine-protein kinase BTK (Homo sapiens) (Q06187 whole entry): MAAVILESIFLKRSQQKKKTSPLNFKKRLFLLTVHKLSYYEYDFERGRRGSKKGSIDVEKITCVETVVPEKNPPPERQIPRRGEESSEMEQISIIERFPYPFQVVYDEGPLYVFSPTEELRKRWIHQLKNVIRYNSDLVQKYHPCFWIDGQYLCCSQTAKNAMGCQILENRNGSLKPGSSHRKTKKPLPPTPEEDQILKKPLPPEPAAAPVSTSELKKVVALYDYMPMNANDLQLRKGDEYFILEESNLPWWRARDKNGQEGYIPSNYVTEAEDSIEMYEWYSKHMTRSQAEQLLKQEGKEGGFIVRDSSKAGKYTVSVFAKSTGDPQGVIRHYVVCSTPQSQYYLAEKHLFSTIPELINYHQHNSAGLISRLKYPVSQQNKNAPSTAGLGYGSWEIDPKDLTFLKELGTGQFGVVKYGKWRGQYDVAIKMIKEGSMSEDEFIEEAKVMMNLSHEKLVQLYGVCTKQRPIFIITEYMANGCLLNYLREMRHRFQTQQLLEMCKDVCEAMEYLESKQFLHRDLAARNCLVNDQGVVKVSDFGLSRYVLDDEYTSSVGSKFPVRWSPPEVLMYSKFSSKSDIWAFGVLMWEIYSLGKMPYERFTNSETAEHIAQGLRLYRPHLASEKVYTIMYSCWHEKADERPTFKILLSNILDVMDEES

Fc1ccc(Nc2nc(N3CCOCC3)c3nc[nH]c3n2)cc1
inhibition [1]: 47% | inhibition [2]: 72% | inhibition [3]: 0% | inhibition [4]: 23% | inhibition [5]: 33% | Activity (HT-29): 10.5% | inhibition [6]: 35%
